Experimental data taken from patent US11028084B2, “Selective inhibitors of gentotoxic steress-induced IKK/NF-κB pathways” (Max-Delbrück-Centrum für Molekulare Medizin in der …, priority 2016, dated 2021).

Tests used:
[1] = biological target: nuclear IKKγ-PIASy-PARP1-ATM signalosome (Homo sapiens, UniProt P09874+Q13315+Q8N2W9+Q9Y6K9); experiment: Nuclear PARP1-signalosome formation, co-immunoprecipitation, HepG2 cells; format: cell-based; design: endogenous in cells
Experimental: (§1) FIG. 8: (A) HepG2 cells were pre-treated with DMSO or MW01 and irradiated. Nuclear cell extracts (NE) were used for PIASy immunoprecipitation (IP). Western blot membranes were incubated with indicated antibodies. (B) Experiment as shown in (A), but with IKKγ IP. (C) Experiment as shown in (B), but done in HEK293 cells. (D) Experiment done as shown in […], but repeated in MEF cells.
(§2) Following cell lysis the protein concentration of samples was determined. For input controls, 40 μg lysate were mixed with 6×SDS-buffer and denatured by heating to 95° C. for 4 min. Approximately 1500 μg protein lysate was used for pulldown and samples volumes were equalled with lysis buffer. Lysates were precleared with 30 μl sepharose A or sepharose G beads (depending on the antibody type used for pulldown) for 30 min, and centrifuged for 5 min at 1,500×g. The supernatant was transferred to a new reaction tube. Primary antibody (2-2.5 μg) was added to the cleared lysate for immunoprecipitation overnight while rotating at 4° C. The next day 30 μl sepharose beads per sample were used for immobilisation of antibodies. Following 4 washes with IP wash buffer precipitated proteins were eluted by mixing with 3×SDS-buffer and heating to 95° C. for 4 min.

HT1080 cells = experiment: Annexin V staining, flow cytometry, HT1080 cells; format: cell-based; details: HT1080, 10 Gy
Experimental: FIG. 16: (A) U2OS cells were pre-treated with DMSO or MW01 and irradiated. Cells were lysed 8 h post γ-IR and were used for western blotting and immunochemical staining. (B) HEK293 cells were pre-treated with DMSO or MW01 and irradiated. After 48 h cells were fixed and stained with crystal violet. Dissolved crystal violet was used for absorbance measurement in a visible light spectrophotometer at a wavelength of 595 nm. (C) HEK293 cells were pre-treated with DMSO or MW01 and irradiated. The percentage of viable cells within the population was calculated by exclusion of annexin V and propidium-iodide positive cells measured by flow cytometry. (D) MEF cells were pre-treated with DMSO or MW01 and irradiated. Cells were used for annexin V staining 24 h and 48 after γ-IR. Percentage of annexin V positive cell population was analysed using a flow cytometer. (E) Experiment done as shown in (D) but with HT1080 cells processed 8 h after irradiation. Statistical significance was calculated using students t-test.
Cells were washed with ice-cold PBS and detached from growing dishes using Trypsin/EDTA solution. Detached cells were centrifuged at 300×g for 5 min. […]
In addition, the sensitising effect of NF-κB inhibition was tested in HT1080 cells. After pre-treatment with DMSO or MW01, cells were irradiated with a dose of 10 Gy and analysed by annexin V staining.

IKKγ mono-ubiquitination = IKKγ mono-ubiquitination after irradiation, IKKγ immunoprecipitation, HEK293 cells; format: cell-based, human
Experimental: (§3) FIG. 11: (A) HEK293 cells were pre-incubated with DMSO, MW01 or ATM inhibitor KU55933 and irradiated. Lysates were subjected to SDS-PAGE/WB. The specific IKKγ S85 band (lower band) was identified by induction following irradiation and by sensitivity to ATMi and λ-phosphatase (λ-PP) treatment. The asterisk indicates a non-specific band that was neither inducible nor ATMi sensitive. (B) Experiment was done as shown in (A) using MEF cells. (C) HEK293 cells were pre-treated with DMSO or MW01, irradiated and lysed. Lysates were used to immunoprecipitate IKKγ using an IKKγ antibody.
as §2, with “Following 4 washes with IP wash buffer precipitated proteins were eluted by mixing with 3×SDS-buffer and heating to 95° C. for 4 min.” left out

ATM = biological target: T1, ATM (Homo sapiens, UniProt Q13315); experiment: Enzymatic activity of ATM in γ-irradiated HepG2 cells, WB of ATM and substrate phosphorylation; format: cell-based
T1 construct: endogenous in cells; host or cells: HepG2
Experimental: FIG. 9: HepG2 cells were pre-incubated with DMSO, MW01 (5 μM) or the ATM inhibitor Ku55933 (10 μM) and irradiated. After 60 min cells were harvested and processed. Immunochemical staining of Western blotting membranes was done using indicated antibodies.

[2] = tested on: IKKγ phosphorylation at S85; experiment: IKKγ S85 phosphorylation after irradiation, WB, HEK293 cells; format: cell-based; details: HEK293 (human)
Experimental: as §3

[3] = tested on: TNFα-induced NF-κB activation; experiment: p65 S536 phosphorylation after TNFα stimulation, SDS-PAGE/WB, U2OS cells; format: cell-based, human; details: 10 μM and 20 μM
Experimental: (§4) FIG. 4: (A) U2OS cells were pre-treated with increasing concentrations of MW01 in triplicates in a 384 well plate. Then, cells were treated with TNFα, fixed and subjected to IF staining of p65. Spatial measurement of p65 cytosolic and nuclear signals was used for the calculation of p65 translocation rates. (B) U2OS cells were pre-treated with MW01 at concentrations of 10 or 20 μM and stimulated with TNFα. Cell lysates were subjected to SDS-PAGE/WB. (C) HEK293 cells were pre-treated with DMSO or MW01 followed by administration of etoposide or TNFα. Cell lysates were used for EMSA.
(§5) For the activation of the canonical NF-κB pathway cells were treated with recombinant human TNFα (10 ng/ml) or IL-1β (10 ng/ml) for 20-30 min at 37° C.

[4] = tested on: TNFα-induced NF-κB activation; experiment: NF-κB DNA binding activity (EMSA) after TNFα stimulation, HEK293 cells; format: cell-based, human
Experimental: as §4, §5
Nuclear or whole cell lysates were incubated with a ^32P-labeled NF-κB DNA-[…]

[5] = biological target: T2, nuclear IKKγ-PIASy-PARP1-ATM signalosome (Mus musculus, UniProt O88522+P11103+Q62388+Q9JM05); experiment: Nuclear PARP1-signalosome formation, IKKγ co-immunoprecipitation, MEF cells; format: cell-based; details: irradiation
T2 construct: endogenous in cells; host or cells: MEF (mouse embryonic fibroblasts)
Experimental: as §1, §2

[6] = tested on: IKKγ phosphorylation at S85; experiment: IKKγ S85 phosphorylation after irradiation, WB, MEF cells; format: cell-based, mouse; details: MEF (murine)
Experimental: as §3

[7] = HepG2, γ-irradiation, 60 min, MW01 5 μM, Ku55933 10 μM

T1 sequence (Q13315 whole entry): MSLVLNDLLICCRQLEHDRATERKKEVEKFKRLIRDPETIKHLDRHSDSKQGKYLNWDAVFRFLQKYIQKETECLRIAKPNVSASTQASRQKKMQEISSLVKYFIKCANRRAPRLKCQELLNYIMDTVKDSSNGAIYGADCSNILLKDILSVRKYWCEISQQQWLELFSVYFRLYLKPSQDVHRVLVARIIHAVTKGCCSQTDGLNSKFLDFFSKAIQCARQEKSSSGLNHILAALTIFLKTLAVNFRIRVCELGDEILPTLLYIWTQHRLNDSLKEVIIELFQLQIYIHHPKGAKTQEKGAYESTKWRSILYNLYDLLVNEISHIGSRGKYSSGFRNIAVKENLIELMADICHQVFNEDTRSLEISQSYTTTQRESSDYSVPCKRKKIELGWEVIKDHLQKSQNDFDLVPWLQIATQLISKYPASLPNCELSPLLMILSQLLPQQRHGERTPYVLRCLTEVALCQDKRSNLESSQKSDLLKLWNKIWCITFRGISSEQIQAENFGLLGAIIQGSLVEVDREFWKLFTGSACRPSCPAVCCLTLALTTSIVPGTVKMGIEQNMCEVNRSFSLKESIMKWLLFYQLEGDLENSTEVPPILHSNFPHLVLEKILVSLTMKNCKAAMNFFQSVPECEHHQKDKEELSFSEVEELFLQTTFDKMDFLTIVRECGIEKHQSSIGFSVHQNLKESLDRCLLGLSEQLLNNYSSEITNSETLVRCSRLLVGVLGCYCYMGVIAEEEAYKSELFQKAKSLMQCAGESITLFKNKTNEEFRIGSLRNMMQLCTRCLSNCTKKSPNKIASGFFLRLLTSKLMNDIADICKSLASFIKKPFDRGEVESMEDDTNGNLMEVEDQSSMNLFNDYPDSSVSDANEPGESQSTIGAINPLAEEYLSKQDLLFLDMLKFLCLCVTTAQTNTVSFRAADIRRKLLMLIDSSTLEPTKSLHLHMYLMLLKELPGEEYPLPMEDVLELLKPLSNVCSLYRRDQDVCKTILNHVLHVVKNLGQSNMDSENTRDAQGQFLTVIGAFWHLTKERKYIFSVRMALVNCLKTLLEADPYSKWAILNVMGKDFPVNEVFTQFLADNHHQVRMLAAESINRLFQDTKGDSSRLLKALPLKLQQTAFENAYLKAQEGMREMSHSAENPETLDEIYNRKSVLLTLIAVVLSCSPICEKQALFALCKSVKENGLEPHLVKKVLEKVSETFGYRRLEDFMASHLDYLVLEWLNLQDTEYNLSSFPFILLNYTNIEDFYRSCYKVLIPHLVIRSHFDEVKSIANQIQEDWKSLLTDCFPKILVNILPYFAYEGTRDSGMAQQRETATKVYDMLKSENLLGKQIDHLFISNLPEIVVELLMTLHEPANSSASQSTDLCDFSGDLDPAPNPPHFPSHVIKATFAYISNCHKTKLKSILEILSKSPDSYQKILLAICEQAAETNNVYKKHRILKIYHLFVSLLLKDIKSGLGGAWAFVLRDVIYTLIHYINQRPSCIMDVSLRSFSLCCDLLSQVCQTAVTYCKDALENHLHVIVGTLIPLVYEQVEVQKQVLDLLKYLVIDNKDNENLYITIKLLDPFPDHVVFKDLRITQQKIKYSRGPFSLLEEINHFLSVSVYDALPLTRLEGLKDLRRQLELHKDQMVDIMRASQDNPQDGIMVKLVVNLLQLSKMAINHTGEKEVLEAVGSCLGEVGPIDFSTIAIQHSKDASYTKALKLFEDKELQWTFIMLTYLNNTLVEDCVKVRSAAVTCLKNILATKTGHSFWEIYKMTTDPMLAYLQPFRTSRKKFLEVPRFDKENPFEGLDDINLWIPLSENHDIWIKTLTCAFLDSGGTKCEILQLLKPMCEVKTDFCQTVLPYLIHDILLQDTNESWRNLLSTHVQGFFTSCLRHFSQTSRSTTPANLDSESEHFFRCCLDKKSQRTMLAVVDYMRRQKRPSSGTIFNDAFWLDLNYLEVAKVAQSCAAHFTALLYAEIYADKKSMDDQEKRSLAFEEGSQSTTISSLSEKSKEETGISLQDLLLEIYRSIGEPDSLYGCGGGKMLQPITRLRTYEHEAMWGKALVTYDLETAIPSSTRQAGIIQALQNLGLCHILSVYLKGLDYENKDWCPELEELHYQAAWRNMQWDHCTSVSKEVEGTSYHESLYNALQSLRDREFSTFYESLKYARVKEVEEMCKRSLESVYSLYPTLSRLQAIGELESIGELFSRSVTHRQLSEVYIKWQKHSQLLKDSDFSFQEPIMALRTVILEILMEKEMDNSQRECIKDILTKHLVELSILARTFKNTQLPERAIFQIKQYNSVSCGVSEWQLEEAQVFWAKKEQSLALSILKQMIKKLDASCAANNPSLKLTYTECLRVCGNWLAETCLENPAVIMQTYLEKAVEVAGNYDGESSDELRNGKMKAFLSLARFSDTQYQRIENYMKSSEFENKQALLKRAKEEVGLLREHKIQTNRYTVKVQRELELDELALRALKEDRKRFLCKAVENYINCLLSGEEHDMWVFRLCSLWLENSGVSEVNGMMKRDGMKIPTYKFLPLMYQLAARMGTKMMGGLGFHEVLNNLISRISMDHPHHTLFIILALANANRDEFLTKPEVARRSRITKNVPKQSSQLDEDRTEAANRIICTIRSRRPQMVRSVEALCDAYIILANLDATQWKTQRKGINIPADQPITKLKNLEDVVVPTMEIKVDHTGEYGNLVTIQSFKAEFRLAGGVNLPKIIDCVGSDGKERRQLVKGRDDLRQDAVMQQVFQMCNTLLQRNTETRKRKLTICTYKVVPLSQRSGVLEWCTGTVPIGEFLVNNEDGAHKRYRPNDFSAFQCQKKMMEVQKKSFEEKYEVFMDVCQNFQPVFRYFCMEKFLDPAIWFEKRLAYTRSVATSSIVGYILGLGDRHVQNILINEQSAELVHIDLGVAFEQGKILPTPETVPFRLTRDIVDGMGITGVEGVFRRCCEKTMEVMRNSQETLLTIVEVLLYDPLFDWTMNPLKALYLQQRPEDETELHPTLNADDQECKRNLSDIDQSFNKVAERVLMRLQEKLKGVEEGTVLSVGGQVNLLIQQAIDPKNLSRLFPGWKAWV

COc1ccc2c(c1OC)c(=O)n1c3ccc(O)cc3c3ccnc2c31 [MW01, 12-hydroxy-6,7-dimethoxy-8H-benzo[c]indolo[3,2,1-ij][1,5]naphthyridin-8-one]
co-immunoprecipitation of PARP1 with IKKγ ([1]; HepG2, IKKγ IP): not co-immunoprecipitated
γ-irradiation-induced Co-IP of phosphorylated ATM-51981 species with PIASy ([1]; HepG2 nuclear extracts, PIASy IP): lost after pre-treatment with MW01
population of early apoptotic cells (HT1080 cells): roughly doubled
annexin V staining compared to the irradiated control (HT1080 cells; 8 h after irradiation): significant increase
IKKγ mono-ubiquitination (IKKγ mono-ubiquitination): abolishment
ATM auto-phosphorylation and phosphorylation of the ATM substrates p53 and KAP1 (ATM; [7]): no effects
phosphorylation state of p53bp1 (ATM; [7]): mild effects
enzymatic activity of ATM (ATM; conclusion from auto-phosphorylation and substrate phosphorylation): not affected
phosphorylation of IKKγ at S85 [2]: abolished
p65 S536 phosphorylation after TNFα [3]: no effect
induced NF-κB DNA binding activity upon TNFα stimulation [4]: did not interfere with induced NF-κB DNA binding activity
interaction of IKKγ with PARP1, p-ATM S1981 or PIASy [5]: abrogation of the interaction
phosphorylation of IKKγ at S85 [6]: abolished
